According to paper PMC10525924, “Engineering and Purification of Microcin C7 Variants Resistant to Trypsin and Analysis of Their Biological Activity” (Antibiotics, 2023):
≈ marks a conversion by molar mass, not a printed value. Where a SMILES comes first, the peptide text is derived from it. Where no end group is shown, it is not given here.

What was measured:
[1] = Remaining amount by RP-HPLC after chymotrypsin treatment; format: in vitro ADME; conditions: isolated enzyme chymotrypsin; chymotrypsin treated for 3 h; read-out RP-HPLC; Table S2
Procedure: (§3) To test whether the variants were tolerant to trypsin or other digestive enzymes, the amount of the remaining McC and its analogues remaining was determined by RP-HPLC after trypsin, pepsin, and chymotrypsin treated for 3 h (Table S2), and the inhibition zones of trypsin-treated variants were tested using the same method (Table 2).

[2] = Remaining amount by RP-HPLC after pepsin treatment; format: in vitro ADME; conditions: isolated enzyme pepsin; pepsin treated for 3 h; read-out RP-HPLC; Table S2
Procedure: as §3

[3] = HPLC retention time according to hydrophobicity; format: physicochemical; conditions: chromatographic, C18 5 μm 9.4 × 250 mm; A 0.1% trichloroacetic acid, B 0.1% trichloroacetic acid with 90% acetonitrile; linear 5% B to 50% B; 1 mL/min; 35 °C; 280 nm; varies according to hydrophobicity
Procedure: To find the separation peaks of the variants, wildtype McC and blank control fermentation broth samples were tested by HPLC. The separation peaks with obvious differences (those with retention times of 11 min and 17 min) were purified and the antimicrobial activity was determined. […] Therefore, the molecular weight was further analyzed by mass spectrometry, and the separation peak at approximately 17 min was confirmed to be that of the desired purified McC. Since the mutations in this study involved only one amino acid and had few effects on the properties of the peptides, we predicted that the separation peaks of the variants should fluctuate around approximately 17 min according to their hydrophobicity. […] The purity of the purified variants was determined by HPLC to be greater than 80% (Table 3).
The lyophilized supernatants were dissolved in deionized water, filtered through 0.22 μm aqueous-phase filter membranes, and purified by high-performance liquid chromatography (HPLC, Agilent Technologies Inc., Palo Alto, CA, USA) with C18 column (5 μm 9.4 × 250 mm, Agilent Technologies Inc., Palo Alto, CA, USA). The mobile phase was composed of 0.1% (v/v) trichloroacetic acid (solvent A) and 0.1% (v/v) trichloroacetic acid with 90% (v/v) acetonitrile (solvent B). A linear gradient from 95% A/5% B to 50% A/50% B was used with a flow rate of 1 mL/min, a sample volume of 10 μL, a column temperature of 35 °C, and a detection wavelength of 280 nm. Electrospray ionization mass spectrometry (ESI-MS) was used to compare the McC variant masses with the expected masses. The relationships between the relative abundances and the mass-to-charge ratios (m/z) of the ions were determined to confirm the identities of the experimentally produced McC variants.

[4] = system: indicator bacteria; conditions: second to seventh codons of mccA replaced; cited from earlier work
Excerpt: The heptapeptide precursor of McC, f-MRTGNAN, is encoded by the first gene in the mcc gene clusters, mccA [11]. Considering its protein nature, it is suitable for gene-based peptide engineering. Kazakov et al. first applied site-directed mutagenesis on the mccA gene, systematically replacing the second to seventh codons of mccA encoding 19 standard amino acids for a total of 114 mutations.

[5] = system: Yej^+rimL^− strain; assay: organism not typed; format: cell-based; conditions: agar diffusion; for bacteriostatic activity after trypsin treatment, Yej^+rimL^− / Diameters of the inhibition zones, Trypsin-Treated Group, Yej^+rimL^−: supernatant treated with trypsin 50 μg/mL, 37 °C, 3 h; for Diameters of the inhibition zones, Trypsin-Untreated Group, Yej^+rimL^−: 200 μL fermentation supernatant, 1 × 10^5 CFU/mL, 4 °C 1 h then 37 °C 24 h, chloramphenicol 100 μL of 0.25 μg/mL; for Diameters of the inhibition zones, Trypsin-Untreated Group, Yej^+rimL^− / Diameters of the inhibition zones, Trypsin-Treated Group, Yej^+rimL^−: dash = no zone; for Diameters of the inhibition zones, Trypsin-Treated Group, Yej^+rimL^−: pH 6.8, 37 °C 24 h
Excerpt: To analyze the antimicrobial ability of the variants, we measured the inhibition zones of all 21 variants by the agar diffusion method. The peptide moiety of McC was recognized by a YejABEf-peptide transporter. The rimL contains an acetyltransferase domain homologous to MccE which can detoxify and provide resistance to McC [17]. The overexpression of the YejABEF gene cluster and rimL gene knockout made the strain hypersensitive to McC. Therefore, the Yej^+rimL^− strain was selected as the sensitive indicator bacterial strain.
(§1) The pH was adjusted to 6.8.
(§2) The fermentation supernatants and pure products were used to characterize the bacteriostatic effects of McC variants by the agar diffusion and microdilution methods. Yej^+rimL^− and E. coli K88 indicator bacteria were applied. The serotype of E. coli K88 was O149:K91, K88ac, a clinically isolated strain, and provided by the College of Veterinary Medicine, China Agricultural University. The indicated bacteria were diluted to 1 × 10^5 CFU/mL and added to plate medium cooled to 50 °C. Two hundred microliters of supernatants were added to each dish, and diffusion was performed at 4 °C for 1 h. After incubation at 37 °C for 24 h, the diameters of the inhibition zones were determined. One hundred microliters of 0.25 μg/mL chloramphenicol was used as a control. The MICs of the pure McC variants were determined by microdilution in a sterilized 96-well microplate. The McC variants were serially diluted 2 times in 96-well microplates with LB medium. The concentrations of the McC variants ranged from 0.125 to 100 µg/mL. Each well was inoculated with 10 μL of overnight bacterial culture at a concentration of 1.0 × 10^5 CFU/mL and incubated at 37 °C for 24 h. A microplate reader was used to automatically observe changes in absorbance at 600 nm in order to monitor bacterial growth. A positive control group (including inoculated medium) and a negative control group (with medium only) were included. The MIC was determined as the lowest concentration of McC variant that inhibited bacterial growth (preventing an increase in the absorbance reading). All tests were performed in triplicate.

[6] = system: Yej^+rimL^− strain; format: cell-based; conditions: HPLC-purified variants; microdilution in LB, 96-well; 0.125 to 100 µg/mL; 1.0 × 10^5 CFU/mL; 37 °C 24 h; absorbance 600 nm; triplicate
Procedure: To accurately characterize the bacteriostatic abilities of the variants, the MICs of the pure McC variants toward the McCsensitive strain Yej^+rimL^− were determined. The MICs of all variants were lower than that of wild-type McC. From smallest to largest MIC, the above five variants were in the following order: R2A, R2T, R2Q, R2S, and R2H. […] Although the diameter of the inhibitory zone of R2M was smaller than those of the above five variants, the bacteriostatic ability of R2M was second only to R2T/R2Q, and the MIC was 50 μg/mL.
as §2

[7] = system: E. coli K88; assay: microbe, parasite or virus in culture; format: cell-based; conditions: agar diffusion; for antimicrobial activity after trypsin treatment, K88 / Diameters of the inhibition zones, Trypsin-Treated Group, K88: supernatant treated with trypsin 50 μg/mL, 37 °C, 3 h; for Diameters of the inhibition zones, Trypsin-Untreated Group, K88: 200 μL fermentation supernatant, 1 × 10^5 CFU/mL, 4 °C 1 h then 37 °C 24 h, chloramphenicol 100 μL of 0.25 μg/mL; for Diameters of the inhibition zones, Trypsin-Untreated Group, K88 / Diameters of the inhibition zones, Trypsin-Treated Group, K88: dash = no zone; for Diameters of the inhibition zones, Trypsin-Treated Group, K88: pH 6.8, 37 °C 24 h
Procedure: as §1, §2

Compound | remaining at 3 h [1] | remaining at 3 h [2] | Retention Time [3] | antimicrobial activity of mccA substitution variants [4] | bacteriostatic activity after trypsin treatment, Yej^+rimL^− [5] | Diameters of the inhibition zones, Trypsin-Untreated Group, Yej^+rimL^− [5] | Diameters of the inhibition zones, Trypsin-Treated Group, Yej^+rimL^− [5] | MIC [6] | antimicrobial activity after trypsin treatment, K88 [7] | Diameters of the inhibition zones, Trypsin-Untreated Group, K88 [7] | Diameters of the inhibition zones, Trypsin-Treated Group, K88 [7]
CSCC[C@H](NC=O)C(=O)N[C@@H](CO)C(=O)N[C@H](C(=O)NCC(=O)N[C@@H](CC(N)=O)C(=O)N[C@@H](C)C(=O)N[C@@H](CC(=O)O)C(=O)NP(=O)(OCCCN)OC[C@H]1O[C@@H](n2cnc3c(N)ncnc32)[C@H](O)[C@@H]1O)[C@@H](C)O (some centres unmarked) [R2S] (HELM PEPTIDE1{[O=C[*:2]].M.S.T.G.N.A.[NCCCOP(=O)(NC(=O)[C@H](CC(=O)O)N[*:1])OC[C@H]1O[C@@H](n2cnc3c(N)ncnc32)[C@H](O)[C@@H]1O]}$$$$V2.0) | 41.3 ± 1.27% | 84.33 ± 0.77% | 17.004 min | bacteriostatic | exhibited antibacterial effects | 17.35 mm | 16.34 mm | 100 µg/mL (≈ 90.2 µM) | retained their antimicrobial activity | 13.46 mm | 9.44 mm
A6M: McC substitution variant of Kazakov et al., site-directed mutagenesis of mccA (MRTGNMN; ends and bridges not checked; UniProt Q47505 1-7, looked up, variant A6M) [reference compound] | – | – | – | loss of antimicrobial activity | – | – | – | – | – | – | –
CSCC[C@H](NC=O)C(=O)N[C@@H](CCC(N)=O)C(=O)N[C@H](C(=O)NCC(=O)N[C@@H](CC(N)=O)C(=O)N[C@@H](C)C(=O)N[C@@H](CC(=O)O)C(=O)NP(=O)(OCCCN)OC[C@H]1O[C@@H](n2cnc3c(N)ncnc32)[C@H](O)[C@@H]1O)[C@@H](C)O (some centres unmarked) [R2Q] (HELM PEPTIDE1{[O=C[*:2]].M.Q.T.G.N.A.[NCCCOP(=O)(NC(=O)[C@H](CC(=O)O)N[*:1])OC[C@H]1O[C@@H](n2cnc3c(N)ncnc32)[C@H](O)[C@@H]1O]}$$$$V2.0) | 49.6 ± 1.19% | 87.6 ± 1.23% | 16.910 min | – | exhibited antibacterial effects | 19.45 mm | 19.38 mm | 25 µg/mL (≈ 21.8 µM) | retained their antimicrobial activity | 21.67 mm | 14.56 mm
CC[C@H](C)[C@H](NC(=O)[C@H](CCSC)NC=O)C(=O)N[C@H](C(=O)NCC(=O)N[C@@H](CC(N)=O)C(=O)N[C@@H](C)C(=O)N[C@@H](CC(=O)O)C(=O)NP(=O)(OCCCN)OC[C@H]1O[C@@H](n2cnc3c(N)ncnc32)[C@H](O)[C@@H]1O)[C@@H](C)O (some centres unmarked) [R2I] (HELM PEPTIDE1{[O=C[*:2]].M.I.T.G.N.A.[NCCCOP(=O)(NC(=O)[C@H](CC(=O)O)N[*:1])OC[C@H]1O[C@@H](n2cnc3c(N)ncnc32)[C@H](O)[C@@H]1O]}$$$$V2.0) | 41.3 ± 0.55% | 91.72 ± 0.87% | 18.166 min | – | exhibited antibacterial effects | 18.36 mm | 15.67 mm | 100 µg/mL (≈ 88.2 µM) | – | 10.18 mm | –
CSCC[C@H](NC=O)C(=O)N[C@H](C(=O)N[C@H](C(=O)NCC(=O)N[C@@H](CC(N)=O)C(=O)N[C@@H](C)C(=O)N[C@@H](CC(=O)O)C(=O)NP(=O)(OCCCN)OC[C@H]1O[C@@H](n2cnc3c(N)ncnc32)[C@H](O)[C@@H]1O)[C@@H](C)O)[C@@H](C)O (some centres unmarked) [R2T] (HELM PEPTIDE1{[O=C[*:2]].M.T.T.G.N.A.[NCCCOP(=O)(NC(=O)[C@H](CC(=O)O)N[*:1])OC[C@H]1O[C@@H](n2cnc3c(N)ncnc32)[C@H](O)[C@@H]1O]}$$$$V2.0) | 46.7 ± 0.66% | 86.76 ± 0.77% | 17.418 min | – | exhibited antibacterial effects | 21.74 mm | 17.23 mm | 25 µg/mL (≈ 22.3 µM) | retained their antimicrobial activity | 15.27 mm | 11.68 mm
A6F: McC substitution variant of Kazakov et al., site-directed mutagenesis of mccA (MRTGNFN; ends and bridges not checked; UniProt Q47505 1-7, looked up, variant A6F) [reference compound] | – | – | – | loss of antimicrobial activity | – | – | – | – | – | – | –
CSCC[C@H](NC=O)C(=O)N[C@@H](CCCNC(=N)N)C(=O)N[C@H](C(=O)NCC(=O)N[C@@H](CC(N)=O)C(=O)N[C@@H](C)C(=O)N[C@@H](CC(=O)O)C(=O)NP(=O)(OCCCN)OC[C@H]1O[C@@H](n2cnc3c(N)ncnc32)[C@H](O)[C@@H]1O)[C@@H](C)O (some centres unmarked) [McC, Microcin C7] (HELM PEPTIDE1{[O=C[*:2]].M.R.T.G.N.A.[NCCCOP(=O)(NC(=O)[C@H](CC(=O)O)N[*:1])OC[C@H]1O[C@@H](n2cnc3c(N)ncnc32)[C@H](O)[C@@H]1O]}$$$$V2.0) | 41.7 ± 1.07% | 89.3 ± 1.16% | 17.198 min | – | – | 29.12 mm | – | 1.56 µg/mL (≈ 1.33 µM) | – | 20.25 mm | –
